These results are taken from patent US11702404B2, “GLP-1R modulating compounds” (priority 2019, dated 2023).

Like-named read-outs stand apart in the source and are kept apart here.

In one series the target is GLP-1R (Homo sapiens, UniProt P43220). Briefly: GLP-1R activation: cAMP increase in CHO cells stably expressing GLP-1R. The class given is cell-based.
Series [1] can be described thus: Microsomal stability, human liver microsomes (predicted hepatic clearance). The conditions noted are these: predicted from in vitro microsomal stability data.
Where [2] appears, read: cAMP increase, CHO cells stably expressing GLP-1R, 10 point dose response, 30 minutes incubation, read-out: EC50.

Sequence of GLP-1R (P43220 24-463): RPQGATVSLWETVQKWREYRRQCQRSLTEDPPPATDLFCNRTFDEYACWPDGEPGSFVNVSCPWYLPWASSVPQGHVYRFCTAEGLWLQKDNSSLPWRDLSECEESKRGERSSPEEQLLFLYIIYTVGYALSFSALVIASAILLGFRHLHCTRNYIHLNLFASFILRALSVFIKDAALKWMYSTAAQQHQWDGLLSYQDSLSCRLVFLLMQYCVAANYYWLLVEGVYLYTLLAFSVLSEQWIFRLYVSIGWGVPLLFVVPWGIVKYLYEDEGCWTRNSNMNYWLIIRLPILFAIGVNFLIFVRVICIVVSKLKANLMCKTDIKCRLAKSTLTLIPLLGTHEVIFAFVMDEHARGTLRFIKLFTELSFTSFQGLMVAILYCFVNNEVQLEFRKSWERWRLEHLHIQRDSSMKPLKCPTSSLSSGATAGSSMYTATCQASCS

Turning to `COCCn1c(Cc2ccc(-c3cccc(OCc4ccc(Cl)cc4F)n3)cc2F)nc2ccc(C(=O)O)cc21` [Example 478, 2-(4-(6-((4-chloro-2-fluorobenzyl)oxy)pyridin-2-yl)-2-fluorobenzyl)-1-(2-methoxyethyl)-1H-benzo[d]imidazole-6-carboxylic acid], on GLP-1R (setting [2]), the EC50 (usually the concentration at which the effect is half-maximal) worked out at 9.19 nM. The “Predicted Hepatic Clearance (Pred. Cl.)” value in series [1] was 3.17 mL/min/kg.

Regarding `COCCn1c(Cc2ccc(-c3cccc(OCc4ccc(C(F)(F)F)cc4F)n3)cc2F)nc2ccc(C(=O)O)cc21` [Example 480, 2-[[2-fluoro-4-[6-[[2-fluoro-4-(trifluoromethyl)phenyl]methoxy]-2-pyridyl]phenyl]methyl]-3-(2-methoxyethyl)benzimidazole-5-carboxylic acid], on GLP-1R (setting [2]), the EC50 turned out to be 6.59 nM. For the same compound, the “Predicted Hepatic Clearance (Pred. Cl.)” value in series [1] is less than 1.83 mL/min/kg.

As to `COCCn1c(Cc2ccc(-c3cccc(OCc4cc(F)c(Cl)cc4OC)n3)cc2F)nc2ccc(C(=O)O)cc21` [Example 481, 2-(4-(6-((4-chloro-5-fluoro-2-methoxybenzyl)oxy)pyridin-2-yl)-2-fluorobenzyl)-1-(2-methoxyethyl)-1H-benzo[d]imidazole-6-carboxylic acid], the EC50 at GLP-1R (setting [2]) was found to be 2.9 nM. The “Predicted Hepatic Clearance (Pred. Cl.)” value in series [1] was less than 1.83 mL/min/kg.

As to `CC(=O)N1CC[C@@H]1Cn1c(Cc2ccc(-c3cccc(OCc4ccc(C#N)cc4F)n3)cc2F)nc2ccc(C(=O)O)cc21` [Example 483, (R)-1-((1-acetylazetidin-2-yl)methyl)-2-(4-(6-((4-cyano-2-fluorobenzyl)oxy)pyridin-2-yl)-2-fluorobenzyl)-1H-benzo[d]imidazole-6-carboxylic acid], the EC50 on GLP-1R (read-out: EC50) is 3.94 nM. In addition, the “Predicted Hepatic Clearance (Pred. Cl.)” value in series [1] is 2.5 mL/min/kg.

For the compound `N#Cc1ccc(COc2cccc(-c3ccc(Cc4nc5ccc(C(=O)O)cc5n4Cc4ccon4)c(F)c3)n2)c(F)c1` [Example 484, 2-(4-(6-((4-cyano-2-fluorobenzyl)oxy)pyridin-2-yl)-2-fluorobenzyl)-1-(isoxazol-3-ylmethyl)-1H-benzo[d]imidazole-6-carboxylic acid], at GLP-1R (setting [2]), the EC50 amounted to 1.06 nM. In addition, the “Predicted Hepatic Clearance (Pred. Cl.)” value in series [1] was 3.45 mL/min/kg.

Take `CC(=O)NCCn1c(Cc2ccc(-c3cccc(OCc4ccc(C#N)cc4F)n3)cc2F)nc2ccc(C(=O)O)cc21` [Example 485, 1-(2-acetamidoethyl)-2-(4-(6-((4-cyano-2-fluorobenzyl)oxy)pyridin-2-yl)-2-fluorobenzyl)-1H-benzo[d]imidazole-6-carboxylic acid]: the EC50 at GLP-1R (read-out: EC50) was determined as 103 nM. Also, the “Predicted Hepatic Clearance (Pred. Cl.)” value in series [1] is 3.67 mL/min/kg.

On to `N#Cc1ccc(COc2cccc(-c3cc(F)c(Cc4nc5ccc(C(=O)O)cc5n4Cc4ccon4)cc3F)n2)c(F)c1` [Example 486, 2-(4-(6-((4-cyano-2-fluorobenzyl)oxy)pyridin-2-yl)-2,5-difluorobenzyl)-1-(isoxazol-3-ylmethyl)-1H-benzo[d]imidazole-6-carboxylic acid], for which the EC50 on GLP-1R (setting [2]) was found to be 1.05 nM. For the same compound, the “Predicted Hepatic Clearance (Pred. Cl.)” value in series [1] was 5 mL/min/kg.

For the compound `COCCn1c(Cc2ccc(-c3cccc(OCc4ccc(C(F)(F)F)nc4F)n3)cc2F)nc2ccc(C(=O)O)cc21` [Example 487, 2-(2-fluoro-4-(6-((2-fluoro-6-(trifluoromethyl)pyridin-3-yl)methoxy)pyridin-2-yl)benzyl)-1-(2-methoxyethyl)-1H-benzo[d]imidazole-6-carboxylic acid], the 50% effective concentration (EC50) at GLP-1R (setting [2]) is 100 nM. In series [1], the “Predicted Hepatic Clearance (Pred. Cl.)” value was 5.33 mL/min/kg.

For `CC(=O)N1CCC[C@H](Cn2c(Cc3ccc(-c4cccc(OCc5ccc(C#N)cc5F)n4)cc3F)nc3ccc(C(=O)O)cc32)C1` [Example 488, (R)-1-((1-acetylpiperidin-3-yl)methyl)-2-(4-(6-((4-cyano-2-fluorobenzyl)oxy)pyridin-2-yl)-2-fluorobenzyl)-1H-benzo[d]imidazole-6-carboxylic acid], the EC50 at GLP-1R (setting [2]) was 1090 nM. For the same compound, the “Predicted Hepatic Clearance (Pred. Cl.)” value in series [1] is 10 mL/min/kg.

For `Cc1conc1Cn1c(Cc2ccc(-c3cccc(OCc4ccc(C#N)cc4F)n3)cc2F)nc2ccc(C(=O)O)cc21` [Example 490, 2-(4-(6-((4-cyano-2-fluorobenzyl)oxy)pyridin-2-yl)-2-fluorobenzyl)-1-((4-methylisoxazol-3-yl)methyl)-1H-benzo[d]imidazole-6-carboxylic acid], the EC50 at GLP-1R (setting [2]) is 5.53 nM. Also, in series [1], the “Predicted Hepatic Clearance (Pred. Cl.)” value was 3.67 mL/min/kg.

With `N#Cc1ccc(COc2cccc(-c3ccc(Cc4nc5ccc(C(=O)O)cc5n4Cc4cn[nH]c4)c(F)c3)n2)c(F)c1` [Example 491, 1-((1H-pyrazol-4-yl)methyl)-2-(4-(6-((4-cyano-2-fluorobenzyl)oxy)pyridin-2-yl)-2-fluorobenzyl)-1H-benzo[d]imidazole-6-carboxylic acid], the concentration giving a half-maximal response (EC50) at GLP-1R (setting [2]) came to 19.4 nM. Moreover, the “Predicted Hepatic Clearance (Pred. Cl.)” value in series [1] is 12.7 mL/min/kg.

With `N#Cc1ccc(COc2cccc(-c3ccc(Cc4nc5c(F)cc(C(=O)O)cc5n4C[C@@H]4CCO4)cc3F)n2)c(F)c1` [Example 492, (S)-2-(4-(6-((4-cyano-2-fluorobenzyl)oxy)pyridin-2-yl)-3-fluorobenzyl)-4-fluoro-1-(oxetan-2-ylmethyl)-1H-benzo[d]imidazole-6-carboxylic acid], at GLP-1R (setting [2]), the EC50 was 5.16 nM. The “Predicted Hepatic Clearance (Pred. Cl.)” value in series [1] was less than 1.83 mL/min/kg.

Turning to `COCCn1c(Cc2ccc(-c3cccc(OCc4nccnc4OC)n3)cc2F)nc2ccc(C(=O)O)cc21` [Example 493, 2-(2-fluoro-4-(6-((3-methoxypyrazin-2-yl)methoxy)pyridin-2-yl)benzyl)-1-(2-methoxyethyl)-1H-benzo[d]imidazole-6-carboxylic acid], the EC50 at GLP-1R (setting [2]) was 255 nM. Further, the “Predicted Hepatic Clearance (Pred. Cl.)” value in series [1] was 19.2 mL/min/kg.

`COCCn1c(Cc2ccc(-c3cccc(O[C@@H](C)c4ccccc4)n3)cc2F)nc2ccc(C(=O)O)cc21` [Example 494, (S)-2-(2-fluoro-4-(6-(1-phenylethoxy)pyridin-2-yl)benzyl)-1-(2-methoxyethyl)-1H-benzo[d]imidazole-6-carboxylic acid]: the EC50 on GLP-1R (setting [2]) worked out at 4550 nM. The “Predicted Hepatic Clearance (Pred. Cl.)” value in series [1] is 13.2 mL/min/kg.

Turning to `COCCn1c(Cc2ccc(-c3cccc(OCc4cccc(S(C)(=O)=O)c4)n3)cc2F)nc2ccc(C(=O)O)cc21` [Example 495, 2-(2-fluoro-4-(6-((3-(methylsulfonyl)benzyl)oxy)pyridin-2-yl)benzyl)-1-(2-methoxyethyl)-1H-benzo[d]imidazole-6-carboxylic acid], on GLP-1R (setting [2]), the concentration for a half-maximal effect (EC50) was 777 nM. For the same compound, the “Predicted Hepatic Clearance (Pred. Cl.)” value in series [1] was 5.83 mL/min/kg.

In the case of `COCCn1c(Cc2ccc(-c3cccc(OCc4ccccc4COC)n3)cc2F)nc2ccc(C(=O)O)cc21` [Example 496, 2-(2-fluoro-4-(6-((2-(methoxymethyl)benzyl)oxy)pyridin-2-yl)benzyl)-1-(2-methoxyethyl)-1H-benzo[d]imidazole-6-carboxylic acid], the EC50 on GLP-1R (setting [2]) stood at 2000 nM. Moreover, in series [1], the “Predicted Hepatic Clearance (Pred. Cl.)” value is 18.2 mL/min/kg.

In the case of `COCCn1c(Cc2ccc(-c3cccc(OCc4cccc(C#N)c4)n3)cc2F)nc2ccc(C(=O)O)cc21` [Example 497, 2-(4-(6-((3-cyanobenzyl)oxy)pyridin-2-yl)-2-fluorobenzyl)-1-(2-methoxyethyl)-1H-benzo[d]imidazole-6-carboxylic acid], on GLP-1R (setting [2]), the EC50 was 1350 nM. Besides, the “Predicted Hepatic Clearance (Pred. Cl.)” value in series [1] was 5.33 mL/min/kg.

On GLP-1R (EC50 (nM)), `COCCn1c(Cc2ccc(-c3cccc(OCc4ccc(C#N)cc4)n3)cc2F)nc2ccc(C(=O)O)cc21` [Example 499, 2-(4-(6-((4-cyanobenzyl)oxy)pyridin-2-yl)-2-fluorobenzyl)-1-(2-methoxyethyl)-1H-benzo[d]imidazole-6-carboxylic acid] gave an EC50 of 8.18 nM. In addition, the “Predicted Hepatic Clearance (Pred. Cl.)” value in series [1] was 3.5 mL/min/kg.

`COCCn1c(Cc2ccc(-c3cccc(OCc4ccccc4-c4ccccc4)n3)cc2F)nc2ccc(C(=O)O)cc21` [Example 500, 2-(4-(6-([1,1′-biphenyl]-2-ylmethoxy)pyridin-2-yl)-2-fluorobenzyl)-1-(2-methoxyethyl)-1H-benzo[d]imidazole-6-carboxylic acid]: the EC50 on GLP-1R (setting [2]) came to 474 nM. The “Predicted Hepatic Clearance (Pred. Cl.)” value in series [1] was 9.67 mL/min/kg.

For `COCCn1c(Cc2ccc(-c3cccc(OCc4ccccc4)n3)cc2F)nc2ccc(C(=O)O)cc21` [Example 501, 2-(4-(6-(benzyloxy)pyridin-2-yl)-2-fluorobenzyl)-1-(2-methoxyethyl)-1H-benzo[d]imidazole-6-carboxylic acid], the EC50 on GLP-1R (setting [2]) turned out to be 102 nM. For the same compound, the “Predicted Hepatic Clearance (Pred. Cl.)” value in series [1] was 11.5 mL/min/kg.

For `COCCn1c(Cc2ccc(-c3cccc(OCn4ccc(C(N)=O)cc4=O)n3)cc2F)nc2ccc(C(=O)O)cc21` [Example 502, 2-(4-(6-((4-carbamoyl-2-oxopyridin-1(2H)-yl)methoxy)pyridin-2-yl)-2-fluorobenzyl)-1-(2-methoxyethyl)-1H-benzo[d]imidazole-6-carboxylic acid], the EC50 at GLP-1R (setting [2]) was 2380 nM. Also, the “Predicted Hepatic Clearance (Pred. Cl.)” value in series [1] is 2.67 mL/min/kg.

In the case of `COCCn1c(Cc2ccc(-c3cccc(OCc4cccc(-c5ccccc5)c4)n3)cc2F)nc2ccc(C(=O)O)cc21` [Example 504, 2-(4-(6-([1,1′-biphenyl]-3-ylmethoxy)pyridin-2-yl)-2-fluorobenzyl)-1-(2-methoxyethyl)-1H-benzo[d]imidazole-6-carboxylic acid], the half-maximal effective concentration (EC50) on GLP-1R (setting [2]) was 28.5 nM. For the same compound, the “Predicted Hepatic Clearance (Pred. Cl.)” value in series [1] was 3.5 mL/min/kg.

Turning to `COCCn1c(Cc2ccc(-c3cccc(OCc4cccc(OC(F)F)c4)n3)cc2F)nc2ccc(C(=O)O)cc21` [Example 505, 2-(4-(6-((3-(difluoromethoxy)benzyl)oxy)pyridin-2-yl)-2-fluorobenzyl)-1-(2-methoxyethyl)-1H-benzo[d]imidazole-6-carboxylic acid], the 50% effective concentration (EC50) on GLP-1R (setting [2]) turned out to be 41.2 nM. Moreover, the “Predicted Hepatic Clearance (Pred. Cl.)” value in series [1] is less than 1.83 mL/min/kg.
